Assay results: patent publication EP3046573B1, “AMYLIN ANALOGUES” (Zealand Pharma A/S, priority 2013, dated 2015)
Numbered stars: 1 amine (or outer) side, 2 acyl side, 3 side chain; on linkers, the order of the positions; unused ones are H or OH. Bridge positions count the residues as written; N and C are the ends. Square brackets hold non-standard residues; d marks the D form. Peptide text beside a SMILES is read from it. * marks the point of attachment. C20 diacid = O=C(O)CCCCCCCCCCCCCCCCCCC(=O)*; Arachidoyl = CCCCCCCCCCCCCCCCCCCC(=O)*; γGlu = O=C(O)[C@H](CCC(=O)[*:2])N[*:1]; NMeI = CC[C@H](C)[C@H](NC)C(=O)O; Orn = NCCC[C@H](N)C(=O)O; Sar = CNCC(=O)O

Tests used:
[1] = target: T1, human calcitonin receptor (hCTR2) (Homo sapiens, UniProt P30988); assay: hCTR2 assay: induction of cAMP (AlphaScreen cAMP Assay kit) in COS7 cells expressing hCTR2; type: cell-based
T1 construct: expressed in transfected cells
T1 sequence (P30988 25-474): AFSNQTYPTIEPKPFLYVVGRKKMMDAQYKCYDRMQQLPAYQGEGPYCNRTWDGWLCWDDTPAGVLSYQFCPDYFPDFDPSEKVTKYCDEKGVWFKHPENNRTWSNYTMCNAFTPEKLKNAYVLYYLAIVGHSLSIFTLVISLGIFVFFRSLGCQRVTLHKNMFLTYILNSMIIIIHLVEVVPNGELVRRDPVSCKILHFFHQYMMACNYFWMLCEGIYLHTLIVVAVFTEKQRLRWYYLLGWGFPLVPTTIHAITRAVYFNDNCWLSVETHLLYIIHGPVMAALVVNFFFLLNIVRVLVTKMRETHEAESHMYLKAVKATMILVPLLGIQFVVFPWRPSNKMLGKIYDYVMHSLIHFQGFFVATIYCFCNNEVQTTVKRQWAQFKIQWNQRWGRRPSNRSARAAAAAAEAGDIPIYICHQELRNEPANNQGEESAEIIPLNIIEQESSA
Source text: The cell line COS7, originating from African Green Monkey kidney fibroblast cells, was used for establishment of the stable cell lines described below. The COS7 cellular background was used due to it being RAMP naive, and as such it provides the best available system for testing of the monomeric hCTR and different heterodimeric amylin receptor subtypes functionally generated by introduction of the individual RAMPs.
A cell line expressing the human calcitonin receptor (hCTR2) was generated in the COS7 cellular background as stable clones. In brief, hCTR2 (GI: 4502547) was amplified by PCR using primers encoding terminal restriction sites for subcloning. The 5'-end primers additionally encoded a near Kozak consensus sequence to ensure efficient translation. The fidelity of the DNA encoding the receptor was confirmed by DNA sequencing. The PCR products encoding the receptor were subcloned into a mammalian expression vector containing a neomycin (G418) resistance marker. The mammalian expression vector encoding the receptor was transfected into COS7 cells by a standard liposome transfection method. 48 hours post-transfection, cells were seeded for limited dilution cloning and selected with 1 mg/ml G418 in the culture medium. After 3 weeks, surviving colonies of hCTR2-expressing cells were picked, propagated and tested in the amylin efficacy assay as described in Example 3 below. One hCTR2-expressing clone was chosen for compound profiling.
In vitro activity of test peptides at the hCTR2 and hAMYR3 receptors was assessed by measuring the induction of cAMP following stimulation of the receptor by pramlintide or peptides of the invention using the AlphaScreen® cAMP Assay kit from Perkin-Elmer.
Briefly, COS7 cells expressing hCTR2 (see Example 2, above) were seeded at 30-40,000 cells per well in 96-well microtiter plates coated with 0.01 % poly-L-lysine, and grown for 1 day in culture in 100 µl growth medium [DMEM, 10% FCS, Penicillin (100 IU/ml), Streptomycin (100 µg/ml)]. On the day of analysis, growth medium was removed and the cells were washed once with 200 µl Tyrode buffer [Tyrode's Salts (9.6 g/l), 10 mM HEPES, pH 7.4]. Cells were incubated in 100 µl Tyrode buffer containing increasing concentrations of test peptides, 100 µM IBMX and 0.1% casein for 15 min at 37° C. The reaction was stopped by carefully decanting off the compound/buffer medium and replacing it with lysis/detection buffer (80 µl 0.1 % w/v BSA, 5 mM HEPES, 0.3 % v/v Tween-20 in deionized water). After incubation at room temperature for 10 min., the cAMP content of the resulting cell lysate was estimated according to the AlphaScreen® cAMP Assay manufacturer's instructions. EC50 values and relative efficacy values (in %) compared to reference peptide (Pramlintide) were estimated by computer-aided curve fitting using the 4-parameter logistic (4PL) non-linear model.
The in vitro activity results (expressed as EC50 values) for peptides of the invention and for Pramlintide (reference peptide) are summarized in Table 2, below.

[2] = Solubility assessment (turbidity absorbance at 325 nm); type: physicochemical; conditions: stock 2 mg/ml diluted 1:1, ambient temperature (typically 25°C), n=1; for Solubility, Acetate buffer pH 4: 100 mM acetate buffer pH 4.0; for Solubility, Acetate buffer pH 5: 100 mM acetate buffer pH 5.0; for Solubility, Histidine buffer pH 6: 100 mM histidine buffer pH 6.0; for Solubility, Histidine buffer pH 7: 100 mM histidine buffer pH 7.0; for Solubility, Phosphate buffer pH 6: 100 mM phosphate buffer pH 6.0; for Solubility, Phosphate buffer pH 7: 100 mM phosphate buffer pH 7.0; for Solubility, Phosphate buffer pH 7.5: 100 mM phosphate buffer pH7.5
Protocol: A stock solution of the test peptide (2 mg/ml; determined from the weighed amount of peptide) in demineralized water adjusted to pH 2.5 with HCI was prepared, and aliquots were diluted 1:1 in 100 mM acetate buffer (pH 4.0 and pH 5.0), 100 mM histidine buffer (pH 6.0 and pH 7.0) and 100 mM phosphate buffer (pH 6.0, pH 7.0 and pH7.5), respectively, and loaded in a standard flat-bottom, non-sterile 96-well UV Microplate. The absorbance of samples (single samples, n=1) at 280 and 325 nm was measured in an absorbance-based plate reader, which was preheated to ambient temperature (typically 25°C). The turbidity absorbance criterion for a peptide solubility of ≥ 1 mg/ml was an absorbance at 325 nm of ≤ 0.02 absorbance units (which is 5 to 6 times the standard deviation of 8 buffer samples in a plate). Solubility data for peptides of the invention, pramlintide, and for a comparison pramlintide derivative denoted NN96 (see Example 5 below for details) are shown in Table 1, below. Table 1. Solubility data for compounds of the invention.

Row | Structure (SMILES) | EC50 [1] [nM] | Solubility, Acetate buffer pH 4 [2] | Solubility, Acetate buffer pH 5 [2] | Solubility, Histidine buffer pH 6 [2] | Solubility, Histidine buffer pH 7 [2] | Solubility, Phosphate buffer pH 6 [2] | Solubility, Phosphate buffer pH 7 [2] | Solubility, Phosphate buffer pH 7.5 [2]
1 | CC[C@H](C)[C@@H](C(=O)N[C@@H](CC(C)C)C(=O)N[C@@H](CO)C(=O)N[C@@H](CO)C(=O)N[C@H](C(=O)N[C@@H](CC(N)=O)C(=O)N[C@H](C(=O)NCC(=O)N[C@@H](CO)C(=O)N[C@@H](CC(N)=O)C(=O)N[C@H](C(=O)N1CCC[C@H]1C(N)=O)[C@@H](C)O)C(C)C)[C@@H](C)O)N(C)C(=O)[C@H](C)NC(=O)CN(C)C(=O)[C@H](Cc1ccccc1)NC(=O)[C@H](CC(N)=O)NC(=O)[C@H](CC(N)=O)NC(=O)[C@H](CO)NC(=O)[C@H](CO)NC(=O)[C@H](Cc1c[nH]cn1)NC(=O)[C@H](Cc1c[nH]cn1)NC(=O)[C@H](CC(C)C)NC(=O)[C@H](Cc1ccccc1)NC(=O)[C@H](CCC(=O)O)NC(=O)[C@H](C)NC(=O)[C@@H](CC(C)C)NC(=O)[C@H](CCCNC(=N)N)NC(=O)[C@H](CCC(N)=O)NC(=O)[C@@H](NC(=O)[C@H](C)NC(=O)[C@@H]1CSSC[C@H](NC(=O)[C@H](CCCNC(=N)N)NC(=O)CC[C@H](NC(=O)CCCCCCCCCCCCCCCCCCC(=O)O)C(=O)O)C(=O)N[C@@H](CC(N)=O)C(=O)N[C@@H]([C@@H](C)O)C(=O)N[C@@H](C)C(=O)N[C@@H]([C@@H](C)O)C(=O)N1)[C@@H](C)O [Compound 6, [19CD]-isoGlu-RC()NTATC()ATQR-DLeu-AEFLHHSSNNF-Gly(Me)-A-Ile(Me)-LSSTNVGSNTP-NH2] ({C20 diacid-γGlu}-RCNTATCATQR[dL]AEFLHHSSNNF[Sar]A[NMeI]LSSTNVGSNTP-NH2; disulfide 2-7) | 7.8 | – | – | – | – | – | – | –
2 | CC[C@H](C)[C@@H](C(=O)N[C@@H](CC(C)C)C(=O)N[C@@H](CO)C(=O)N[C@@H](CO)C(=O)N[C@H](C(=O)N[C@@H](CC(N)=O)C(=O)N[C@H](C(=O)NCC(=O)N[C@@H](CO)C(=O)N[C@@H](CC(N)=O)C(=O)N[C@H](C(=O)N1CCC[C@H]1C(N)=O)[C@@H](C)O)C(C)C)[C@@H](C)O)N(C)C(=O)[C@H](C)NC(=O)CN(C)C(=O)[C@H](Cc1ccccc1)NC(=O)[C@H](CC(N)=O)NC(=O)[C@H](CC(N)=O)NC(=O)[C@H](CO)NC(=O)[C@H](CO)NC(=O)[C@H](Cc1c[nH]cn1)NC(=O)[C@H](Cc1c[nH]cn1)NC(=O)[C@H](CC(C)C)NC(=O)[C@H](Cc1ccccc1)NC(=O)[C@H](CCC(=O)O)NC(=O)[C@H](C)NC(=O)[C@H](CC(C)C)NC(=O)[C@H](CCCNC(=N)N)NC(=O)[C@H](CCC(N)=O)NC(=O)[C@@H](NC(=O)[C@H](C)NC(=O)[C@@H]1CSSC[C@H](NC(=O)[C@H](CCCN)NC(=O)CC[C@H](NC(=O)CCCCCCCCCCCCCCCCCCC(=O)O)C(=O)O)C(=O)N[C@@H](CC(N)=O)C(=O)N[C@@H]([C@@H](C)O)C(=O)N[C@@H](C)C(=O)N[C@@H]([C@@H](C)O)C(=O)N1)[C@@H](C)O [Compound 65, [19CD]-isoGlu-Orn-C()NTATC()ATQRLAEFLHHSSNNF-Gly(Me)-A-Ile(Me)-LSSTNVGSNTP-NH2] ({C20 diacid-γGlu}-[Orn]CNTATCATQRLAEFLHHSSNNF[Sar]A[NMeI]LSSTNVGSNTP-NH2; disulfide 2-7) | – | SS (SS indicates solubility ≥ 1mg/ml) | SS (SS indicates solubility ≥ 1mg/ml) | SS (SS indicates solubility ≥ 1mg/ml) | SS (SS indicates solubility ≥ 1mg/ml) | SS (SS indicates solubility ≥ 1mg/ml) | SS (SS indicates solubility ≥ 1mg/ml) | SS (SS indicates solubility ≥ 1mg/ml)
3 | CCCCCCCCCCCCCCCCCCCC(=O)N[C@@H](CCC(=O)N[C@@H](CCCNC(=N)N)C(=O)N[C@H]1CSSC[C@@H](C(=O)N[C@@H](C)C(=O)N[C@H](C(=O)N[C@@H](CCC(N)=O)C(=O)N[C@@H](CCCNC(=N)N)C(=O)N[C@@H](CC(C)C)C(=O)N[C@@H](C)C(=O)N[C@@H](CCC(=O)O)C(=O)N[C@@H](Cc2ccccc2)C(=O)N[C@@H](CC(C)C)C(=O)N[C@@H](Cc2c[nH]cn2)C(=O)N[C@@H](CCCNC(=N)N)C(=O)N[C@@H](CO)C(=O)N[C@@H](CO)C(=O)N[C@@H](CC(N)=O)C(=O)N[C@@H](CC(N)=O)C(=O)N[C@@H](Cc2ccccc2)C(=O)N(C)CC(=O)N[C@@H](C)C(=O)N(C)[C@H](C(=O)N[C@@H](CC(C)C)C(=O)N[C@@H](CO)C(=O)N[C@@H](CO)C(=O)N[C@H](C(=O)N[C@@H](CC(N)=O)C(=O)N[C@H](C(=O)NCC(=O)N[C@@H](CO)C(=O)N[C@@H](CC(N)=O)C(=O)N[C@H](C(=O)N2CCC[C@H]2C(N)=O)[C@@H](C)O)C(C)C)[C@@H](C)O)[C@@H](C)CC)[C@@H](C)O)NC(=O)[C@H]([C@@H](C)O)NC(=O)[C@H](C)NC(=O)[C@H]([C@@H](C)O)NC(=O)[C@H](CC(N)=O)NC1=O)C(=O)O [Compound 94, [Eicosanoyl]-isoGlu-RC()NTATC()ATQRLAEFLHRSSNNF-Gly(Me)-A-Ile(Me)-LSSTNVGSNTP-NH2] ({Arachidoyl-γGlu}-RCNTATCATQRLAEFLHRSSNNF[Sar]A[NMeI]LSSTNVGSNTP-NH2; disulfide 2-7) | – | SS (SS indicates solubility ≥ 1mg/ml) | SS (SS indicates solubility ≥ 1mg/ml) | SS (SS indicates solubility ≥ 1mg/ml) | SS (SS indicates solubility ≥ 1mg/ml) | SS (SS indicates solubility ≥ 1mg/ml) | SS (SS indicates solubility ≥ 1mg/ml) | SS (SS indicates solubility ≥ 1mg/ml)
